Test results published in patent publication US20040242463A1, “Compositions for stabilizing oxygen-labile species” (priority 1999, published 2004).

Test: Stability of formulations containing retinol, ascorbic acid and/or tocopherol, HPLC assay
Type: physicochemical
Text: The stability of different formulations containing retinol, ascorbic acid and/or tocopherol as set forth in Examples 7 and 8 below were monitored in terms of appearance and HPLC assay. The degraded products of retinol, ascorbic acid or tocopherol are yellow or brownish in color. The freshly prepared samples were white creams. Discoloration to yellow or brown indicates the instability.

SMILES	Effect of addition on the stability of retinol and tocopherol	Effect on stability of tocopherol
CC(=O)N[C@@H](CS)C(=O)O [N-acetlcysteine, N-acetylcysteine]	slightly enhances	–
O=C1O[C@H]([C@@H](O)CO)C(O)=C1O [ascorbic acid]	–	assists in stabilizing tocopherol
